In BigSolDB 2.1:

O=C(NC(=O)c1c(F)cccc1F)Nc1cc(Cl)c(F)c(Cl)c1F
solubility (mole fraction)
Conditions	278.15 K	283.15 K	288.15 K	293.15 K	298.15 K	303.15 K	308.15 K	313.15 K	318.15 K	323.15 K
in DMF	0.174	0.186	0.2	0.213	0.228	0.243	0.26	0.275	0.292	0.308
in ethanol	0.0485	0.0515	0.0549	0.0582	0.0614	0.0647	0.0676	0.0708	0.0744	0.0782
in methanol	0.0672	0.0729	0.0792	0.0854	0.0925	0.1	0.108	0.116	0.124	0.133
in propylene glycol	0.0199	0.0212	0.0227	0.0241	0.0255	0.0269	0.0282	0.0296	0.0311	0.0327
in water	6.82e-06	7.49e-06	8.19e-06	8.88e-06	9.72e-06	1.07e-05	1.17e-05	1.26e-05	1.36e-05	1.47e-05
